Series [1] concerns the target T1, CYP2C8 (Homo sapiens, UniProt P10632).
T1 sequence (P10632 1-490): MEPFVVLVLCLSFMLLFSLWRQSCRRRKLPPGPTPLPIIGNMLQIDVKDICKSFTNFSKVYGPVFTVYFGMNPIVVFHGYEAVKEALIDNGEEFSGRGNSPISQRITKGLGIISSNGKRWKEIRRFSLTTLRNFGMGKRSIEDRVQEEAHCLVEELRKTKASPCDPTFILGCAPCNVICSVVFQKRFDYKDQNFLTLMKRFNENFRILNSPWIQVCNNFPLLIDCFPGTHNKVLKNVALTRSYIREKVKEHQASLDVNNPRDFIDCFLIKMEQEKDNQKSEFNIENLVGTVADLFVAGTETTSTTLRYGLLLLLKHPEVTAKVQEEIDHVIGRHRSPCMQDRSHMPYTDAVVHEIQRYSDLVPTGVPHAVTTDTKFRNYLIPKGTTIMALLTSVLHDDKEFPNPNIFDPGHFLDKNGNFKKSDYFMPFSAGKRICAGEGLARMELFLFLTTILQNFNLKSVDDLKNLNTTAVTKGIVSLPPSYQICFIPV
Briefly: CYP2C8 inhibition in pooled HLM, amodiaquine to desethylamodiaquine. As to conditions: for IC50: amodiaquine. It counts as in vitro ADME.

Series [2] addresses T1, CYP2C8. Briefly: CYP2C8 inhibition in pooled HLM, pioglitazone to hydroxypioglitazone. In kind it is in vitro ADME.
The target of series [3] is T2, UGT1A1 (Homo sapiens, UniProt P22309).
T2 sequence (P22309 26-533): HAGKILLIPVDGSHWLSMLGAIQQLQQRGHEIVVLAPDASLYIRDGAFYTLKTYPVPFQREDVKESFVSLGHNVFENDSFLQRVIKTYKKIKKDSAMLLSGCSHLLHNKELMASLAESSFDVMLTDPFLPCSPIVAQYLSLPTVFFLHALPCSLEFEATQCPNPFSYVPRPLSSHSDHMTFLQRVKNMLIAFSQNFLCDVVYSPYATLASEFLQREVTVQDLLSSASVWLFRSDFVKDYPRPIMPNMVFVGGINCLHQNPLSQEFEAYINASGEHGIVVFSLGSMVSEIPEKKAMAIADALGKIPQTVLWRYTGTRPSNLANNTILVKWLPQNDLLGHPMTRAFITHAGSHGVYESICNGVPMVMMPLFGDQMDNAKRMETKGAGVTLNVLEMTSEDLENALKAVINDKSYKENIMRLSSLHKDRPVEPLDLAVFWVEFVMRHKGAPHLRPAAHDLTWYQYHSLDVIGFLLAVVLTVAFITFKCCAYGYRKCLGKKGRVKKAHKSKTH
Put plainly: UGT1A1 inhibition in HLM, β-estradiol glucuronidation. In kind it is in vitro ADME.

For series [4], the target named is T3, UGT1A6 (Homo sapiens, UniProt P19224).
T3 sequence (P19224 27-532): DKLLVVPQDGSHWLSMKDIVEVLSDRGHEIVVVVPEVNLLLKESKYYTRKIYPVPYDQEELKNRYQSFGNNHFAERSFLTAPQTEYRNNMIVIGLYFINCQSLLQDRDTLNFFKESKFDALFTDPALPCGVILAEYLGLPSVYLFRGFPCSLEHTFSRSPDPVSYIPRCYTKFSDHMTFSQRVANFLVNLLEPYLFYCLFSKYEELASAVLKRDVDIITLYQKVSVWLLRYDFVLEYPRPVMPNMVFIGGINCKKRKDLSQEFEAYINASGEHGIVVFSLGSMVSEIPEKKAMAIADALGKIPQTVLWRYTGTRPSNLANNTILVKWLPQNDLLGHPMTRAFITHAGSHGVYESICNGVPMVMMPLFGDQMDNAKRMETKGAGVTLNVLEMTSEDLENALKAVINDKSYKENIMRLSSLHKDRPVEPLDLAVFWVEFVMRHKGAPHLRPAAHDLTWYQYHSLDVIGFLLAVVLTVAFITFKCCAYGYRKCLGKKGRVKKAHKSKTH
Put plainly: UGT1A6 inhibition in HLM, serotonin glucuronidation. It counts as in vitro ADME. As to conditions: for IC50: HLM.

Series [5] has as its target T4, UGT1A9 (Homo sapiens, UniProt O60656).
T4 sequence (O60656 26-530): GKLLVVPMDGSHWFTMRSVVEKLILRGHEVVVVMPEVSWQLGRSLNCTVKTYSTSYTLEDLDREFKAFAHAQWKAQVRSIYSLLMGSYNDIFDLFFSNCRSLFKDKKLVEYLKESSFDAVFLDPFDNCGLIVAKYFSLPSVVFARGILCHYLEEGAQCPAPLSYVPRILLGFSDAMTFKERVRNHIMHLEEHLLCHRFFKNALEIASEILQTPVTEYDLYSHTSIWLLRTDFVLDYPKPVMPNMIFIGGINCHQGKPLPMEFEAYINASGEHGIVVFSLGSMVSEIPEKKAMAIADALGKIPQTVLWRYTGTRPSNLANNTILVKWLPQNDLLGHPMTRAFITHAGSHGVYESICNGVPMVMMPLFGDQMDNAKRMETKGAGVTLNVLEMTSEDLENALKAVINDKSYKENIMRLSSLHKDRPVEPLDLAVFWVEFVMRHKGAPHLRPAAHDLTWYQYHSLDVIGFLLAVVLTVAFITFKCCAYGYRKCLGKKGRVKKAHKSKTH
Briefly: UGT1A9 inhibition in HLM, mycophenolic acid glucuronidation. It counts as in vitro ADME.

The subject of series [6] is UGT1A8/10. Put plainly: UGT1A8/10 inhibition in HIM, mycophenolic acid glucuronidation. In kind it is in vitro ADME, human.
The conditions of series [7]: rats, ref Yeo et al., 2013, cited from earlier work.
The conditions of series [8]: ref Riche et al., 2013, cited from earlier work.
Series [9] has as its system UGT1A6. Particulars: UGT1A6 inhibition; ref Sridar et al., 2004; cited from earlier work.
The conditions of series [10]: rats; ref Kapetanovic et al., 2011; cited from earlier work.
[11] abbreviates: initial screening, RDI 250 mg / rough IC50.

Where two headings read alike, the source gives them in different places.

The values below come from article PMC6438784 (Saudi Pharmaceutical Journal : SPJ, 2019).

For orientation: IC50 means the concentration at which inhibition is half-maximal. Usually inhibition stands for the drop in the measured response relative to a control, in per cent. The low end stands for a weak effect, the high end for a strong effect.

For `COc1cc(/C=C/c2ccc(O)cc2)cc(OC)c1` [pterostilbene], the IC50 in series [1] (Precise IC50, confirmatory experiment, HLM, mean ± SE) is 3.12 µM; in series [1] (Rough IC50, initial screening, pooled HLM, desethylamodiaquine formation, mean ± standard error) it was 26.9 ± 5.6 µM; in series [2], 17.9 ± 2.2 µM; in [3] (Rough IC50, initial screening, HLM, β-estradiol) it was more than 500 µM; in [4] (Precise IC50, confirmatory experiment, serotonin, mean ± SE), 15 µM; in [4] (Rough IC50, initial screening, serotonin glucuronide formation, mean ± standard error), 26.7 ± 40.7 µM. The same compound gave an IC50 in [5] of more than 100 µM. Moreover, the V/D index is recorded as 36.30 L/dose in [1] (setting [11]); less than 2 L/dose in [3] (setting [11]); 36.50 L/dose in series [4] (setting [11]); 3.89 L/dose in series [5] (setting [11]); 10.53 L/dose in series [6] (setting [11]). Besides, the inhibition at 30 min in series [3] (human, human liver microsomes, pH 7.4, probe β-estradiol (25 μM)) was less than 50%; in series [5] (human, human liver microsomes, pH 7.4, probe mycophenolic acid (240 μM)), less than 50%. In series [6] (human, human intestinal microsomes, pH 7.4, probe mycophenolic acid (70 μM)), this compound displayed an IC50 at 30 min of 92.7 ± 18.4 µM. Moreover, the VDI in series [6] (initial screening) was 10.5 L. In addition, the “Decrease of bioavailability by fasting” value in series [7] (fasting) is recorded as approximately 55%. In addition, in series [7] (intravenous dose of 2.5 mg/kg), the Clearance entry is on record as “rapid”. In addition, in series [7] (oral aqueous solution), the Bioavailability was 15%. Moreover, the “Effect on blood pressure” value in [8] (250 mg daily dose) is given as “reduction in blood pressure”. Moreover, the “Safety of long term use” value in series [8] (humans, 250 mg/day) is “safe”.

For the compound `COc1cc(C2Oc3cc([C@H]4Oc5cc(O)cc(O)c5C(=O)[C@@H]4O)ccc3OC2CO)ccc1O` (some centres unmarked) [Silybin], in series [9], the half-maximal inhibitory concentration (IC50) was 28 µM.

As for `Oc1ccc(/C=C/c2cc(O)cc(O)c2)cc1` [resveratrol], the Bioavailability in series [10] is given as 20%.
